Assays:
[1] = system: B16/F0 murine melanoma cells; experiment: In-vitro tumor-cell uptake, melanoma cells; type: cell-based; conditions: 37° C., B16/F0 cell line
Description: In-Vitro Tumor-Uptake Studies. Tumor-cell uptake studies in B16/F0 murine melanoma cells were performed with complexes Tc-(Compound A-D and H-M) at 37° C. and 4° C. Additionally, tumor-cell uptake of complex Tc-(Compound A) was investigated in another rapidly dividing MCF-7 human breast cancer cell line.
In-Vitro Cell Studies. Murine B16/F0 melanoma cells and human MCF-7 breast cancer cells were obtained from American Type Culture Collection, Manassas Va., (ATCC) and were grown in T-175 flasks in 14 mL Dulbecco's Modified Eagle Medium (D-MEM; Gibco, Life Technology, Gaithersburg, Md.) containing 4500 mg/L D-glucose, L-glutamine, and pyridoxine hydrochloride, 110 mg/L sodium pyruvate, 10% fetal bovine serum (FBS), 0.2% gentamicin and 0.5% penicillin-streptomycin solution. All cells were harvested from cell culture flasks by trypsinization with 1 mL trypsin-EDTA solution (0.25% trypsin, 1 mM EDTA×4 Na) (Gibco). After being washed with 12 mL Dulbecco's Phosphate-Buffered Saline (PBS) (Gibco), pH 7.2 (Ca^2+- and Mg^2+-free; g/L KCl, 0.20; KH2PO4, 0.20; NaCl, 8.00; Na2HPO4, 1.15), the cells were counted and resuspended in 8 mL S-MEM (Gibco) (Ca^2+ free, with reduced Mg^2+ content) and stored at 4° C. until use.
For in-vitro tumor-cell accumulation studies, 5×10^6 cells in polypropylene test tubes were incubated at 37° C. or 4° C., with intermittent agitation with 1-2 μCi (5 μL) ^99mTc-complex Tc-(Compound A-D) in a total volume of 350 μL S-MEM. At appropriate time intervals the tubes were vortexed and 8-μL samples were layered on 350 μL cold FBS in a 400-μL Eppendorf microcentrifuge tube. After centrifugation at 15,000 rpm for 2 min, the tubes were frozen in a dry ice-acetone bath. While still frozen, the bottom tip of the microcentrifuge tube containing the cell pellet was cut and placed in a counting tube. The remaining portion of the tube with the supernatant was placed in a separate counting tube. Both fractions were counted for radioactivity in a γ-counter (WALLAC, 1480 WIZARD 3″™). The amount of supernatant in the cell pellet was determined to be <1% in separate experiments. The percentage cell uptake of the ^99mTc-complex was calculated as: % uptake=[cpm(pellet)]/[cpm(pellet)+cpm(supernatant)]×100

[2] = Determination of lipophilicity and pKa values by HPLC; type: physicochemical; conditions: HPLC method
Description: The physicochemical parameters of the rhenium complexes, i.e. lipophilicity log P, log D(pH 7.4), and pKa (Table 2) were determined using HPLC methods (Braumann, T.; Grimme, L. H. Determination of Hydrophobic Parameters for Pyridazinone Herbicides by Liquid-Liquid Partition and Reversed-Phase High-Performance Liquid Chromatography. J. Chromatogr. 1981, 206, 7-15; Stytli, C.; Theobald, A. E. Determination of Ionization Constants of Radiopharmaceuticals in Mixed Solvents by HPLC. Appl. Radiat. Isot., 1987, 38, 701-708; Johannsen, B.; Scheunemann, M.; Spies, H.; Brust, P.; Wober, J.; Syhre, R.; Pietzsch, H.-J. Technetium(V) and Rhenium(V) Complexes for 5-HT2A Serotonin Receptor Binding: Structure-Affinity Considerations. Nucl. Med. Biol., 1996, 23, 429-438; and Johannsen, B.; Berger, R.; Brust, P.; Pietzsch, H.-J; Scheunemann, M.; Seifert, S.; Spies, H.; Syhre, R. Structural Modification of Receptor-Binding Technetium-99m Complexes in Order to Improve Brain Uptake. Eur. J. Nucl. Med. 1997, 24, 316-319). […] Since log D(pH 7.4) is a composite measure of log P and pKa, the log D(PH 7.4) of Re-Compound B (1.9) is also higher than that of Re-Compound A (1.1). […] With pKa values >9 for complexes Re-Compound C and Re-Compound D, the resulting low log D(PH 7.4) values of −0.5 (Re-Compound C) and 0.7 (Re-Compound D) are not surprising, since the complexes would exist in a protonated form at pH 7.4.
Determination of Lipophilicity and pKa Values. The lipophilicity and pKa values of all complexes were determined using HPLC methods described previously (Stylli, C.; Theobald, A. E. Determination of Ionization Constants of 4 Radiopharmaceuticals in Mixed Solvents by HPLC. Appl. Radiat. Isot., 1987, 38, 701-708; Johannsen, B.; Scheunemann, M.; Spies, H.; Brust, P.; Wober, J.; Syhre, R.; Pietzsch, H.-J. Technetium(V) and Rhenium(V) Complexes for 5-HT2A Serotonin Receptor Binding: Structure-Affinity Considerations. Nucl. Med. Biol., 1996, 23, 429-438; and Johannsen, B.; Berger, R.; Brust, P.; Pietzsch, H.-J.; Scheunemann, M.; Seifert, S.; Spies, H.; Syhre, R. Structural Modification of Receptor-Binding Technetium-99m Complexes in Order to Improve Brain Uptake. Eur. J. Nucl. Med. 1997, 24, 316-319). […] The mobile phase was acetonitrile:phosphate buffer (0.01 M), 3:1, v/v, with the aqueous buffer adjusted to the desired pH between 3 and 11. The capacity factor (k′) was calculated for each determination (Braumann, T.; Grimme, L. H. Determination of Hydrophobic Parameters for Pyridazinone Herbicides by Liquid-Liquid Partition and Reversed-Phase High-Performance Liquid Chromatography. J. Chromatogr. 1981, 206, 7-15; El Tayer, N.; van der Waterbeemd, H.; Testa, B. Lipophilicity Measurements of Protonated Basic Compounds by Reversed-Phase High-Performance Liquid Chromatography. II. Procedure for the Determination of a Lipophilic Index Measured by Reversed-Phase High Performance Liquid Chromatography. J. Chromatogr. 1985, 320, 305-312; and Minick, D. J.; Frenz, J. H.; Patrick, M. A.; Brent, D. A. A Comprehensive Method for Determining Hydrophobicity Constants by Reversed-Phase High-Performance Liquid Chromatography. J. Med. Chem., 1988, 31, 1923-1933) and the partition coefficient at a given pH (D or log D) were calculated from the equation: log D=a log k′+b where the parameters a and b are predetermined using standard amines. The fitted points of inflection from the sigmoidal DHPLC/pH profiles permit calculation of the pKHPLC(Stylli, C.; Theobald, A. E. Determination of Ionization Constants of Radiopharmaceuticals in Mixed Solvents by HPLC. Appl. Radiat. Isot., 1987, 38, 701-708). The aqueous ionization constants pKa were calculated from the pKHPLC values after correction with a predetermined correction factor obtained using standard amine compounds. Log P values of the neutral complexes were estimated from the respective upper plateau of the sigmoidal log D/pH curve in the alkaline range.

For `CCN(CC)CCN1CC[S][99Tc]2(=[O])[S]CC[N]2C(=O)C1` (stereo not shown) [Tc-(Compound A)], the maximal cell uptake [1] was 43%, the pKa [2] was 7.7 and the “log D(pH 7.4)” value [2] was “≈ 1”.

For `CCCCN(CCCC)CCN1CC[S][99Tc]2(=[O])[S]CC[N]2C(=O)C1` (stereo not shown) [Tc-(Compound B)], the maximal cell uptake [1] was 12%, the “log P” value [2] was 3.3 and the pKa [2] was 7.7. The “log D(pH 7.4)” value [2] was 1.9.
